Experimental findings from patent publication US6461638B1, “Laxative compositions and method for making same” (Techni-Pharma, priority 1996, dated 2002) are described below.

A short description of this series: Effervescence measure by release of CO2, Bernard's calcimeter, water heated to 37° C. Format: physicochemical. The conditions noted are these: acid compound mixed with Na bicarbonate.

Description: Effervescence Measure by Release of CO2
Working of the Bernard's calcimeter.
The assay consists in verifying the working of the equipment of the Bernard's calcimeter.
A little modification has been made on the rubber stopper of the lateral neck by adding a tap. This addition is necessary until at time 0, the experiment begins with an inner pressure equal to the atmospheric pressure.
Introduce a saturated sodium chloride solution in the flask and the graduated tube
Adjust the level of the graduated tube before starting the experiment
Lay on the magnetic heating stirrer the flask containing 100 ml of distilled water at 37° C.
Fill up the flask with a stopper previously fixed at the end of the releasing tube of CO2
Introduce the suppository in the flask without contact occurring between the suppository and the water
Verify again the sodium chloride level in the graduated tube before turning off the tap of the side stopper
Turn on the stirrer and drop the suppository, without forget to unlock the chronometer
Thus, it is necessary to heat the water until 37° C. Thus a magnetic heating stirrer has been used.

As for `O=C1CCC(=O)N1` [succinimide], the “CO2 release (in words)” value is “only induces a reduced and delayed release”.
